Experimental data reported in ChEMBL document CHEMBL1158218, “Structure and Plant Growth Regulatory Activity of New Diterpenes from Pterodon polygalaeflorus” (1996).
Activity calls are given as the source filed them. The rule behind the calls is not given here.

Key:
Cucumis sativus [1] = test: Stimulation of radicular growth in Cucumis sativus at 100 ppm after 3 days; format: functional, organism-based
Sorghum bicolor [2] = test: Inhibition of radicular growth in Sorghum bicolor at 1000 ppm after 3 days; format: functional; conditions: 72 h
Cucumis sativus [3] = test: Stimulation of radicular growth in Cucumis sativus at 1000 ppm after 3 days; format: functional, organism-based
Cucumis sativus [4] = test: Inhibition of radicular growth in Cucumis sativus at 1000 ppm after 3 days; format: functional, organism-based
Sorghum bicolor [5] = test: Inhibition of radicular growth in Sorghum bicolor at 100 ppm after 3 days; format: functional; conditions: 72 h

## CC1(C)CCC[C@]2(C)[C@H]3Cc4occc4[C@H]4C(=O)O[C@@H]([C@H](O)[C@@H]12)[C@@H]43
Cucumis sativus [1]
  Activity: Active
Sorghum bicolor [2]
  inhibition at 1000 ppm: 13%
Cucumis sativus [3]
  Activity: inactive

## CC1(C)CCC[C@]2(C)[C@H]3Cc4occc4[C@@H](C(=O)O)[C@@H]3[C@@H](O)[C@H](O)[C@@H]12
Cucumis sativus [1]
  Activity: Active
Cucumis sativus [4]
  Activity: Active
Sorghum bicolor [2]
  inhibition at 1000 ppm: 65%
Sorghum bicolor [5]
  inhibition at 100 ppm: 39%

## CC1(C)CCC[C@]2(C)[C@H]3Cc4occc4[C@@](C)(O)[C@@H]3[C@@H](O)[C@H](O)[C@@H]12
Cucumis sativus [1]
  Activity: Active
Sorghum bicolor [2]
  inhibition at 1000 ppm: 13%
Cucumis sativus [3]
  Activity: inactive

## C[C@]1(CO)CCC[C@]2(C)[C@H]3Cc4occc4[C@@](C)(O)[C@@H]3[C@@H](O)[C@H](O)[C@@H]12
Cucumis sativus [1]
  Activity: Active
Cucumis sativus [4]
  Activity: Active
Sorghum bicolor [2]
  inhibition at 1000 ppm: 13%
